Consider 50 compounds from EP4567031A1, “HPK1 INHIBITOR, PREPARATION METHOD THEREFOR, AND USE THEREOF” (Beijing Earthwise Technology Co., Ltd., priority 2022, dated 2024).

pEC50: −log10 of the molar value.

In the first experiment the test system is human Pan T cells. In words: Human Pan T cell IL-2 ELISA. The format is cell-based. The settings on record: Anti-CD3 and Anti-CD28, 48 hours, supernatant IL-2 ELISA, read-out: IL-2 release, EC50. The protocol: A compound was dissolved in DMSO to 10 mM, and then diluted three-fold with DMSO to 9 dosages in a 96-well plate. Then, 10 µL of the diluted compound sample was transferred to a 96-well plate with 90 µL of cell culture medium, and the plate was shaken for 5 minutes. Then, 5 µL of the diluted compound sample was transferred to a 96-well plate with 120 µL of cell culture medium, and the plate was shaken for 5 minutes. According to the experimental design diagram, 50 µL of the diluted compound sample was transferred to a cell plate. Final concentrations of the compound in this assay were 10000.00, 5000, 2500, 1250, 625, 312.5, 156.25, 78.125 and 39.063 nM.
The assay was conducted in a 96-well plate. On the first day of the assay, Anti-CD3 was added to the 96-well plate and incubated in a 4 °C refrigerator overnight. On the second day of the assay, human Pan T cells were recovered, centrifuged and counted. The cell density was adjusted to 1*10^6 cells/ml. Then, 100 µL of cells were added to the 96-well plate washed with PBS and added with Anti-CD3; according to the experimental design diagram, 50 µL of diluted Anti-CD28 and 50 µL of the diluted compound were added to each well, centrifuged, and the cell plate was placed and incubated in an incubator for 48 hours; after 48 hours, the plate was centrifuged and the supernatant was collected for IL-2 ELISA.
The signal value of light absorption was converted into a multiple. Multiple = sample value/the average value of control wells. The average value of control wells refers to the value measured in wells with DMSO added. EC50 values were calculated by XLFit (version 5.3.1.3) in Excel. Equation: Y=Bottom + (Top-Bottom) / (1 + (EC50/X) ^ HillSlope). Table 6. Results of cellular activity of the compounds
On the technique in general: In an ELISA, binding on a coated surface is turned into a signal by an enzyme label.
`COC1CCc2c(-c3cc4c(c5c3CNC5=O)Nc3ccc(N5CCOCC5)cc3C4(C)C)cncc21` (single isomer, unassigned) [Example 203]: the negative logarithm of the EC50 (pEC50) (commonly −log10 of the EC50, conventionally taken in molar units) was 7.02. For `CC1CCCn2c(-c3cc4c(c5c3CNC5=O)Nc3ccc(N5CCOCC5)cc3C4(C)C)cnc21` (single isomer, unassigned) [Example 219], the pEC50 is 8.09. `CC1(C)c2cc(N3CCOCC3)ccc2Nc2c1cc(-c1cnc3n1CCC(C(F)F)C3)c1c2C(=O)NC1` (single isomer, unassigned) [Example 239]: the pEC50 is 8.12.

On to `Cn1c(-c2cc3c(c4c2CNC4=O)Nc2ccc(N4CCOCC4)cc2C3(C)C)cnc1C1CCCO1` (single isomer, unassigned) [Example 191], for which the pEC50 was 7.55. As for `CO[C@H]1CCCn2c(-c3cc4c(c5c3CNC5=O)Nc3ccc(N5CC6CCC(C5)O6)cc3C4(C)C)cnc21` [Example 196], the pEC50 is 7.57. Turning to `CC1(C)c2cc(N3CCOCC3)ccc2Nc2c1cc(-c1cnc3n1CCCC3O)c1c2C(=O)NC1` (single isomer, unassigned) [Example 228], the pEC50 was 7.96. Regarding `CC1CCCn2c(-c3cc4c(c5c3CNC5=O)Nc3ccc(N5CCOCC5)cc3C4(C)C)cnc21` (single isomer, unassigned) [Example 218], the negative-log EC50 (pEC50) is 7.72. On the same count and under the same terms, to `COC1CCn2c(-c3cc4c(c5c3CNC5=O)Nc3ccc(N5CCOCC5)cc3C4(C)C)cnc21` (single isomer, unassigned) [Example 230] belongs 8.12.

Staying with this experiment, now noted: Homo sapiens, T-cell, 48 h, Anti-CD3 and Anti-CD28, supernatant IL-2 ELISA, read-out: IL-2 release, EC50.
`CC1(C)c2cc(N3CCC(O)CC3)ccc2Nc2c1cc(-c1cnn3cccnc13)c1c2C(=O)NC1` [Example 47]: the pEC50 is 8.34.

`CC1(C)c2cc(N3CCOCC3)ccc2Nc2c1cc(-c1cnc3c(F)c(C(F)F)ccn13)c1c2C(=O)NC1` [Example 193]: the pEC50 was 8.02. For the compound `COCC1(O)CCN(c2ccc3c(c2)C(C)(C)c2cc(-c4cnc5c(OC)nccn45)c4c(c2N3)C(=O)NC4)CC1` [Example 200], the negative-log EC50 (pEC50) was 8.85. Consider `Cn1c(-c2cc3c(c4c2CNC4=O)Nc2ccc(N4CCO[C@@H](C(C)(C)O)C4)cc2C3(C)C)cnc1N1CCOCC1` [Example 174], for which the pEC50 was 7.41.

In the case of `COC1CCCn2c(-c3cc4c(c5c3CNC5=O)Nc3ccc(N5CC(C)OC(C)C5)cc3C4(C)C)cnc21` (single isomer, unassigned) [Example 140], the pEC50 was 7.45. For `CC1(C)c2cc(N3CCOC(C(C)(C)O)C3)ccc2Nc2c1cc(-c1ccncc1)c1c2C(=O)NC1` (centres unmarked) [Example 43], the pEC50 was 7.65. As for `CCC1(C)c2cc(N3CCOCC3)ccc2Nc2c1cc(-c1cnc3n1CCCC3OC)c1c2C(=O)NC1` (single isomer, unassigned) [Example 159], the negative-log EC50 (pEC50) was 7.63. With `COC1CCCn2c(-c3cc4c(c5c3CNC5=O)Nc3ccc(N5CCCOCC5)cc3C4(C)C)cnc21` (single isomer, unassigned) [Example 158], the pEC50 is 7.42.

As for `CC1(C)c2cc(N3CCOC(C(C)(C)O)C3)ccc2Nc2c1cc(-c1cnc3cc(C(F)F)ccn13)c1c2C(=O)NC1` (centres unmarked) [Example 113], the pEC50 is 7.86.

As to `Cn1c(-c2cc3c(c4c2CNC4=O)Nc2ccc(N4CCOC(C(C)(C)O)C4)cc2C3(C)C)cnc1C1CCOCC1` (single isomer, unassigned) [Example 141], the pEC50 was 7.06.

As to `CC1(C)c2cc(N3CCOCC3)ccc2Nc2c1cc(-c1cnc3cc(N4CC(F)C4)ccn13)c1c2C(=O)NC1` [Example 207], the pEC50 was 7.64. Still for that read-out and setting: to `CC1(C)c2cc(N3CCOCC3)ccc2Nc2c1cc(-c1cnc3nc(C(F)F)ccn13)c1c2C(=O)NC1` [Example 197] belongs 7.96; to `COc1ccn2c(-c3cc4c(c5c3CNC5=O)Nc3ccc(N5CCOCC5)cc3C4(C)C)cnc2n1` [Example 189], 8.24; to `COc1ccn2c(-c3cc4c(c5c3CNC5=O)Nc3ccc(N5CCOC(C(C)(C)O)C5)cc3C4(C)C)cnc2c1` (centres unmarked) [Example 110], 7.80.

For `COc1c(F)ccn2c(-c3cc4c(c5c3CNC5=O)Nc3ccc(N5CCOCC5)cc3C4(C)C)cnc12` [Example 209], the pEC50 is 8.48. Consider `CC1(C)c2cc(N3CCOCC3)ccc2Nc2c1cc(-c1cnc3cc(N4CCC4)ccn13)c1c2C(=O)NC1` [Example 206], for which the pEC50 is 7.00. Consider `Cc1ccn2c(-c3cc4c(c5c3CNC5=O)Nc3ccc(N5CCOC(C(C)(C)O)C5)cc3C4(C)C)cnc2c1` (single isomer, unassigned) [Example 106], for which the pEC50 is 7.74.

`COc1cc2c(cc1N1CCOCC1)C(C)(C)c1cc(-c3cnc4n3CCCC4OC)c3c(c1N2)C(=O)NC3` (single isomer, unassigned) [Example 182]: the pEC50 is 7.70.

For the compound `Cc1nccn2c(-c3cc4c(c5c3CNC5=O)Nc3ccc(N5CCOCC5)cc3C4(C)C)cnc12` [Example 173], the pEC50 is 8.42. Take `CC1(C)c2cc(N3CCO[C@@H](C(C)(C)O)C3)ccc2Nc2c1cc(-c1cnn3cc(C(F)F)ccc13)c1c2C(=O)NC1` [Example 169]: the pEC50 was 8.19. Take `CC1(C)c2cc(N3CCOCC3)ccc2Nc2c1cc(-c1cnc3nc(N4CC(F)C4)ccn13)c1c2C(=O)NC1` [Example 247]: the pEC50 is 8.04. Same read-out and setting: to `CC1(C)c2cc(N3CCOCC3)ccc2Nc2c1cc(-c1cnc3c(F)c(C#N)ccn13)c1c2C(=O)NC1` [Example 198] belongs 8.28; to `CC1(C)c2cc(N3CCOCC3)ccc2Nc2c1cc(-c1cnc3c(N4CCC4)nccn13)c1c2C(=O)NC1` [Example 211], 7.26. As to `CCC1(C)c2cc(N3CCOCC3)ccc2Nc2c1cc(-c1cnc3c(OC)nccn13)c1c2C(=O)NC1` (single isomer, unassigned) [Example 212], the pEC50 was 7.96. Same read-out and setting: to `CC1(C)c2cc(N3CCOC(C(C)(C)O)C3)ccc2Nc2c1cc(-c1cnc3c(Cl)cccn13)c1c2C(=O)NC1` (centres unmarked) [Example 99] belongs 8.26; to `COC1CCn2c(-c3cc4c(c5c3CNC5=O)Nc3ccc(N5CCOC(C(C)(C)O)C5)cc3C4(C)C)cnc2C1` (single isomer, unassigned) [Example 142], 7.60; to `COC1CCCn2c(-c3cc4c(c5c3CNC5=O)Nc3ccc(N5C6CCC5COC6)cc3C4(C)C)cnc21` (single isomer, unassigned) [Example 152], 7.46. On to `CN1CCN(c2ccc3c(c2)C(C)(C)c2cc(-c4cnn5cccnc45)c4c(c2N3)C(=O)NC4)CC1` [Example 44], for which the pEC50 is 8.61.

Consider `COC1CCn2c(-c3cc4c(c5c3CNC5=O)Nc3ccc(N5CCOCC5)cc3C4(C)C)cnc21` (single isomer, unassigned) [Example 229], for which the pEC50 is 7.85.

For the compound `CC1(C)c2cc(N3CCOCC3)ccc2Nc2c1cc(-c1cnc3nc(C(F)F)ccn13)c1c2C(=O)NCC1` [Example 282], the pEC50 was 7.36.

As to `CC1(C)c2cc(N3CCOCC3)ccc2Nc2c1cc(-c1cnc3cc(C#N)ccn13)c1c2C(=O)NC1` [Example 165], the pEC50 is 8.32. As for `Cn1c(-c2cc3c(c4c2CNC4=O)Nc2ccc(N4CCOC(C(C)(C)O)C4)cc2C3(C)C)cnc1C1CCOC1` (single isomer, unassigned) [Example 147], the pEC50 was 7.37.

`CC1(C)c2cc(N3CCOC(C(C)(C)O)C3)ccc2Nc2c1cc(-c1cnn3ccccc13)c1c2C(=O)NC1` (centres unmarked) [Example 122]: the pEC50 is 8.37. Take `CC1(C)c2cc(N3CCOC(C(C)(C)O)C3)ccc2Nc2c1cc(-c1cnc3cc(C#N)ccn13)c1c2C(=O)NC1` (single isomer, unassigned) [Example 133]: the pEC50 is 7.65. The same measure, in the same setting: to `CC1(C)c2cc(N3CCOC(C(C)(C)O)C3)ccc2Nc2c1cc(-c1cnn3cc(F)ccc13)c1c2C(=O)NC1` (centres unmarked) [Example 109] belongs 8.04. On to `CC1(C)c2cc(-c3cnn4cccnc34)c3c(c2Nc2cc(F)c(N4CCOCC4)c(F)c21)C(=O)NC3` [Example 116], for which the pEC50 is 7.19. For `CC1(C)c2cc(N3CCOCC3)ccc2Nc2c1cc(-c1cnc3c(OC4CC4)nccn13)c1c2C(=O)NC1` [Example 199], the pEC50 is 7.62. Regarding `COc1c(F)ccn2c(-c3cc4c(c5c3CNC5=O)Nc3ccc(N5CCOC(C(C)(C)O)C5)cc3C4(C)C)cnc12` (single isomer, unassigned) [Example 127], the pEC50 was 7.91.

`Cn1c(-c2cc3c(c4c2CNC4=O)Nc2ccc(N4CCOC(C(C)(C)O)C4)cc2C3(C)C)cnc1C1CC1` (centres unmarked) [Example 105]: the pEC50 is 7.94. `CC1(C)c2cc(N3CCOC(C(C)(C)O)C3)ccc2Nc2c1cc(-c1cncc3c1OCCN3)c1c2C(=O)NC1` (centres unmarked) [Example 111]: the pEC50 was 7.51. In the case of `COc1nccn2c(-c3cc4c(c5c3CNC5=O)Nc3ccc(N5CCN6CCOCC6C5)cc3C4(C)C)cnc12` (centres unmarked) [Example 194], the pEC50 was 8.37.

As to `COC1CCCn2c(-c3cc4c(c5c3CNC5=O)Nc3ccc(N5CCOC(C(C)(C)O)C5)cc3C4(C)C)cnc21` (centres unmarked) [Example 102], the pEC50 is 7.97.
